The text below walks through data of PMC7693775, “AGTR1 Is Overexpressed in Neuroendocrine Neoplasms, Regulates Secretion and May Potentially Serve as a Target for Molecular Imaging and Therapy” (Cancers, 2020).

Series [1] has as its system BON cells. It is filed as cell-based, human. The note with it: for effect on ATII-induced calcium signal: BON cells, preincubation 15-30 min before ATII (valsartan, PD123319: 1 µM).
Series [2] has as its system H727 cells. Put plainly: intracellular calcium mobilization assay. It is filed as cell-based, human. The note with it: preincubation 15-30 min before ATII (valsartan, PD123319: 1 µM). As to the method:
(§1) If not indicated otherwise, cell culture reagents were obtained from Biochrom AG (Berlin, Germany). The human NEN cell lines BON and QGP-1 (pancreatic), LCC-18 (colonic), H727 and UMC-11 (pulmonary) and all other cell lines were cultured in RPMI 1640 supplemented with 10 % fetal calf serum in a humidified atmosphere at 37 °C and 5% CO2. BON cells were a kind gift of Courtney Townsend (University of Texas, Galveston, TX, USA). LCC-18 were kindly donated by Kjell Ö berg (University of Uppsala, Uppsala, Sweden) and KRJ-1 by Dr. Irvin Modlin (Yale University, New Haven, CT, USA). QGP-1 were obtained from the Japanese Collection of Research Bioresources.
(§2) All other cell lines were obtained from Cell Line Services (Heidelberg, Germany), DSMZ (Braunschweig, Germany) or ATCC (Manassas, VA, USA). Cells were cultured for no more than 20 passages. Mycoplasma testing was done at least every six months. Cell lines were authenticated by STR analysis at DSMZ (Braunschweig, Germany). Due to the lack of reference profiles for BON and LCC-18, their respective STR profile was characterized as unique and not contamina ted with any […]
(§3) Table 1. STR profiling data for BON and LCC -18 cells.
(§4) Experiments in 96-well format were performed as previously described (18). […]

In series [3] the target is T1, ATII receptor (AGTR1, AGTR2) (Homo sapiens, UniProt P30556).
T1 construct: Consecutive cryosections of each tissue were incubated with the radioligand in the absence or presence of an excess of non-labeled ATII; from tissue; host or cells: flash-frozen cryosections of patient pancreatic and small-intestinal NEN and of control pancreas, small intestine and liver
T1 sequence (P30556 1-359): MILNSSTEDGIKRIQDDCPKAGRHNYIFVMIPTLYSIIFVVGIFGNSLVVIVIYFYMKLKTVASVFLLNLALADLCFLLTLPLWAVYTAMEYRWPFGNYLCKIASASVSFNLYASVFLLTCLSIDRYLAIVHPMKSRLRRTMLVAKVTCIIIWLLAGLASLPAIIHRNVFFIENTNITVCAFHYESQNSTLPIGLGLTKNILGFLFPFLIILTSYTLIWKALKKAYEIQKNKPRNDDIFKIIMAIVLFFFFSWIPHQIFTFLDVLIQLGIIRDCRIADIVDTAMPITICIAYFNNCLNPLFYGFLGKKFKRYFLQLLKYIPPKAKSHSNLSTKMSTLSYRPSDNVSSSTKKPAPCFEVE
Briefly: in vitro receptor autoradiography of tissue cryosections. The note with it: 1 µM competitor. Format: binding.

Series [4] concerns the target T2, ATII receptor (AGTR1, AGTR2) (Homo sapiens, UniProt P50052).
T2 construct: Consecutive cryosections of each tissue were incubated with the radioligand in the absence or presence of an excess of non-labeled ATII; from tissue; host or cells: flash-frozen cryosections of patient pancreatic and small-intestinal NEN and of control pancreas, small intestine and liver
T2 sequence (P50052 1-363): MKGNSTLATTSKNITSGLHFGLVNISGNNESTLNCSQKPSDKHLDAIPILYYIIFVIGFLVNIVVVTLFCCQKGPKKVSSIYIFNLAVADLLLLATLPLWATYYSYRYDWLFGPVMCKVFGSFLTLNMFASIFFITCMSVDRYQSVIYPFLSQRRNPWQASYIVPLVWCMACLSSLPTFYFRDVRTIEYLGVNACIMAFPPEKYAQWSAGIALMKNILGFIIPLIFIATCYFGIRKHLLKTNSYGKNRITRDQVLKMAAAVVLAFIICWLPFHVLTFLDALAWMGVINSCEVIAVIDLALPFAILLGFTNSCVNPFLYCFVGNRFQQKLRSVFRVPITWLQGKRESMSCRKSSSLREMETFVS
Described as above. Format: binding. The settings on record: normal pancreas; 1 µM competitor.

In series [5] the target is T3, AGTR1 (Homo sapiens, UniProt P30556).
T3 sequence (P30556 1-359): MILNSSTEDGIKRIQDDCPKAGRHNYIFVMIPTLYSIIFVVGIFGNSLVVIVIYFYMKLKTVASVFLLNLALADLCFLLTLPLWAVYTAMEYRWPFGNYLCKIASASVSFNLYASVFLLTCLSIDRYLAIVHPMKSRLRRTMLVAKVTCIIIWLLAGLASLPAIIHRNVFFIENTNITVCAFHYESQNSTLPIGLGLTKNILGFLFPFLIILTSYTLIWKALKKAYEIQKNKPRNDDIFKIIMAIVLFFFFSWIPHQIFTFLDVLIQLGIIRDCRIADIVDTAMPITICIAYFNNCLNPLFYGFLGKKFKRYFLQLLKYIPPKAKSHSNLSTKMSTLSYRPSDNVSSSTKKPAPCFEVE
Put plainly: competition binding with 125I-ATII, BON cells. As to the method:
(§5) The Boc-protected ITCC dye (69 mg) was dissolved in DCM (3.0 mL) and subjected to deprotection by addition of TFA (300 µL). The reaction mixture was stirred for 2 h, the solvent removed under reduced pressure and the mixture codistilled with DCM several times to remove […]
(§6) TFA. […] MS (ESI): C39H51N4NaO7S2
(§7) 2.2 eq.) and DIPEA (7.2 µL, 42 µmol, 4.7 eq.) and the reaction mixture stirred for 1 h. The deprotected ITCC dye (8.0 mg, 9.0 µmol, 1.0 eq.) was dissolved in DMF (125 µL) with DIPEA (3.6 µL, 21 µmol, 2.3 eq.) and added to the reaction mixture which was stirred for additional 17 h. The mixture was precipitated from Et2O and the precipitate purified via flash chromatography (DCM/MeOH) to afford […]
(§8) Peptide iodination was performed as previously described [ 1 ].
(§9) (Sigma, Deisenhofen, Germany) were iodinated with 1 mCi carrier -free Na 125 I (NEZ033L010MC, Perkin Elmer, Waltham, MA, USA) and purified by HPLC (Analyt ic HPLC 1200 Series, Agilent, Santa Clara, CA, USA; see Figure S1 in supplementary material). The method for the competitive binding assay was described in detail before. For saturation experiments, binding buffer was prepared […]
(§10) of additional unlabeled peptide (total binding). Non -specific binding was subtracted from total binding to obtain spec ific binding. […]

In series [6] the target is T3, AGTR1. Briefly: competition binding with 125I-ATII, H727 cells. As for the experimental part:
as §5, §6, §7, §8, §9, §10

In series [7] the test system is BON cells. Briefly: serotonin ELISA of cell supernatants. Format: cell-based, human. The note with it: 1 µM, 6 h. As for the experimental part:
as §1, §2, §3, §4

Series [8] has as its system AGTR1-positive BON tumors. Put plainly: in vivo near-infrared fluorescent imaging, xenograft. More on the design: species or system mice. As for the experimental part: seeded with 15,000/50,000 cells per well.
(§11) free medium for 10 min at room tem perature. A buffer baseline was obtained on the dynamic mass
(§12) used and plotted with GraphPad Prism 5.04.
(§13) For in vivo receptor targeting, the near -infrared fluorescent
(§14) in 100 µ L 0.9 % NaCl per animal).
(§15) fluorescence intensities.
(§16) animal research authorities.
First Linear Peptidic Urotensin -II Receptor Agonist. J. Med. Chem. 2016 , 59, 10100–10112,

Series [9] concerns receptor negative QGP-1 tumors. The note with it: 1 nmol i.v., NIRF imaging. As for the experimental part: as §11, §12, §13, §14, §15, §16
J. Med. Chem. 2016 , 59, 10100–10112,

Series [10] has as its system BON cells. Put plainly: chromogranin A ELISA of cell supernatants. Format: cell-based, human. The settings on record: 10 µM preincubation 15 min, 100 nM ATII. As for the experimental part: as §1, §2, §3, §4
(In general: An ELISA detects its analyte on a solid surface through an enzyme-linked reagent.)

Series [11] has as its system BON cells. Briefly: metabolic activity (AlamarBlue). Format: cell-based, human. The note with it: 96 h, different concentrations. As for the experimental part: (§17) filter paper and measured in a gamma counter. Additional tissue sections were stained with hematoxylin and eosin for comparison with the corresponding autoradiograms.
as §1, with “Bioresources. […]” for “Bioresources.”
(§18) Cells were seeded in quadruplicates at a density of 5,000 cells in 50 µ L medium per well in 96 well plates, grown overnight and treated with the indicated ligand concentrations (on top of the well, final volume 100 µ L). After 96 h, metabolic activity was determined by addition of 100 µ L medium containing AlamarBlue™ redox indicator (Thermo Fisher, Waltham, MA, US) to each well. After 3 –4 h, the resulting fluorescence was measured with an EnVision Multilabel Plate Reader (Perkin Elmer, Waltham, USA). […]

Series [12] has as its system H727 cells. Put plainly: metabolic activity (AlamarBlue). Format: cell-based, human. The note with it: 96 h, different concentrations. As for the experimental part:
as §17
as §1, with “Bioresources. […]” for “Bioresources.”
as §18

In series [13] the target is AGTR1. More on the design: method as in PMID 25313325. The note with it: read-out: published Ki; cited from earlier work.
Series [14] has as its target 125I-angiotensin II (Homo sapiens), P01019. Put plainly: radioligand.
Series [15] deals with angiotensin II (Homo sapiens), P01019. Briefly: competition.
angiotensin II (Homo sapiens), P01019, sequence (P01019 whole entry, looked up): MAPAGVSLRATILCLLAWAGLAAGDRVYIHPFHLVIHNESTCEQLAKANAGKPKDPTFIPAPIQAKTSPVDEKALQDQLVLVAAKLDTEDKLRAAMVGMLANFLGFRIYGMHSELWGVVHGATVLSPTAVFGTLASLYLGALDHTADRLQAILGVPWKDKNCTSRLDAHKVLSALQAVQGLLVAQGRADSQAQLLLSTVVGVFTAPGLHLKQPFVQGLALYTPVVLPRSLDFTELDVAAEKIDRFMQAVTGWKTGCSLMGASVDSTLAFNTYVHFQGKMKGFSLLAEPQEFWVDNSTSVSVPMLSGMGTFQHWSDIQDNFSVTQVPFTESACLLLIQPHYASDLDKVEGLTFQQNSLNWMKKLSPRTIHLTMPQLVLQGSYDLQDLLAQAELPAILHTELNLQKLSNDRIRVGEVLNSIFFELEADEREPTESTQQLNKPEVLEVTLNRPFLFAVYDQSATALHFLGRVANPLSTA
Series [16] shares this target. Briefly: competition. The source holds these as a separate data set.

Where two headings read alike, the source gives them in different places.

As usually defined, the EC50 is the midpoint of the concentration-response curve. As usually defined, the Ki is the equilibrium dissociation constant of an inhibitor or competing ligand from its target. Broadly, the Kd is the free concentration of one partner at which half of the binding sites on the other are occupied at equilibrium, for simple one-to-one binding. A higher Kd goes with a looser complex.

125I-angiotensin II (Homo sapiens), P01019, sequence (P01019 whole entry, looked up): as above

For `CC[C@H](C)[C@H](NC(=O)[C@H](Cc1ccc(O)cc1)NC(=O)[C@@H](NC(=O)[C@H](CCCNC(=N)N)NC(=O)[C@@H](N)CC(=O)O)C(C)C)C(=O)N[C@@H](Cc1c[nH]cn1)C(=O)N1CCC[C@H]1C(=O)N[C@@H](Cc1ccccc1)C(=O)O` [ATII, angiotensin II], in the series on BON cells [1] (24 h), the midpoint of the response, the EC50, lay at 4.9 ± 5.2 nM.

`Cc1cc(Cn2cnc3c2C[C@@H](C(=O)O)N(C(=O)C(c2ccccc2)c2ccccc2)C3)ccc1N(C)C` [PD123319]: the “effect on ATII-induced calcium signal” value in the series with H727 cells [2] and in the series on BON cells [1] was “did not influence” each time. Also, the “displacement of 125I-ATII binding” value is given as “not” in series [3] (pancreatic NEN tissues #1, #4, #6, #8); “unable to compete” in series [3] (small-intestinal NEN tissues); “displaced” in series [4]; “not” on AGTR1 [5]; “not” at AGTR1 [6].

For the molecule `CCOc1nc2cccc(C(=O)O)c2n1Cc1ccc(-c2ccccc2-c2nc(=O)o[nH]2)cc1` [azilsartan], in the series on BON cells [7], the “serotonin (5HT) secretion” value is “did not modify”.

On to `CC(C)[C@H](NC(=O)[C@H](CCCNC(=N)N)NC(=O)CN(C)C(=O)CCC(=O)NCCCOCCOCCOCCCNC(=O)c1ccc2c(c1)C(C)(C)C(=CC=CC=CC=CC1=[N+](CCCCS(=O)(=O)[O-])c3ccccc3C1(C)C)N2CCCCS(=O)(=O)O)C(=O)N[C@@H](Cc1ccc(O)cc1)C(=O)N[C@H](C(=O)N[C@@H](Cc1c[nH]cn1)C(=O)N1CCC[C@H]1C(=O)N[C@@H](C)C(=O)O)C(C)C` [saralasin–ITCC], for which, in [8] (1 nmol i.v., NIRF imaging), the “accumulation in AGTR1-positive xenograft tumors” value was “selective accumulation”. Besides, the “ex vivo organ imaging” value in series [8] (6 hours after injection) is “accumulation in kidneys and liver”. Besides, the “decrease of affinity by ITCC versus published Ki of saralasin” value on AGTR1 [5] stood at 250 fold. Besides, in series [9], the “uptake in QGP-1 tumors” value was “Low non-significant uptake”.

On to `CCCCC(=O)N(Cc1ccc(-c2ccccc2-c2nnn[nH]2)cc1)[C@H](C(=O)O)C(C)C` [valsartan], for which the “effect on ATII-induced calcium signal” value in the series on H727 cells [2] and in the series on BON cells [1] was “significantly diminish” throughout. For the same molecule, the “effect on ATII-stimulated CgA secretion” value in the series with BON cells [10] is recorded as “diminished”. Also, the “serotonin (5HT) secretion” value in the series with BON cells [7] is given as “did not modify”. The metabolic activity result in the series with BON cells [11] and with H727 cells [12] was “no change” each time.

As to saralasin, the Ki at AGTR1 [13] is 1 nM.

B1: Angiotensin II receptor type 1, P30556 (protein)
chain: MILNSSTEDGIKRIQDDCPKAGRHNYIFVMIPTLYSIIFVVGIFGNSLVVIVIYFYMKLKTVASVFLLNLALADLCFLLTLPLWAVYTAMEYRWPFGNYLCKIASASVSFNLYASVFLLTCLSIDRYLAIVHPMKSRLRRTMLVAKVTCIIIWLLAGLASLPAIIHRNVFFIENTNITVCAFHYESQNSTLPIGLGLTKNILGFLFPFLIILTSYTLIWKALKKAYEIQKNKPRNDDIFKIIMAIVLFFFFSWIPHQIFTFLDVLIQLGIIRDCRIADIVDTAMPITICIAYFNNCLNPLFYGFLGKKFKRYFLQLLKYIPPKAKSHSNLSTKMSTLSYRPSDNVSSSTKKPAPCFEVE
Turning to B1, in series [14], the Kd is 0.6 nM. Also, the Ki came out at 0.1 nM in series [15] and 0.2 nM in series [16].
